According to patent publication US20050113410A1, “Pharmaceutical salts of zafirlukast” (priority 2003, published 2005):
Counter-ions that a name gives are not always drawn. Blank lines part the entries; values can stand above or below the compound they belong to.

What was measured:
[1] = Stability of the crystalline form under aqueous conditions (conversion to neutral form, checked by PXRD); assay type: physicochemical
From the text: All powder x-ray diffraction patterns were obtained using the D/Max Rapid X-ray Diffractometer (D/Max Rapid, Contact Rigaku/MSC, 9009 New Trails Drive, The Woodlands, Tex., USA 77381-5209) equipped with a copper source (Cu/Kα1.5406 angstroms), manual x-y stage, and 0.3 mm collimator. The sample was loaded into a 0.3 mm boron rich glass capillary tube (e.g., Charles Supper Company, 15 Tech Circle, Natick, Mass. 01760-1024) by sectioning off one end of the tube and tapping the open, sectioned end into a bed of the powdered sample or into the sediment of a slurried precipitate. Note, precipitate can be amorphous or crystalline. The loaded capillary was mounted in a holder that was secured into the x-y stage. A diffractogram was acquired (e.g., Control software: RINT Rapid Control Software, Rigaku Rapid/XRD, version 1.0.0, © 1999 Rigaku Co.) under ambient conditions at a power setting of 46 kV at 40 mA in reflection mode, while oscillating about the omega-axis from 0-5 degrees at 1 degree/s and spinning about the phi-axis at 2 degrees/s. The exposure time was 15 minutes unless otherwise specified. […]

[2] = commercially available form (ACCOLATE), neutral molecule; cited from earlier work
[3] = cited from earlier work

PXRD diffractogram after exposure to aqueous conditions ([1]; after exposure to neutral or acidic aqueous conditions): remains unchanged
SMILES: COc1cc(C(=O)NS(=O)(=O)c2ccccc2C)ccc1Cc1cn(C)c2ccc(NC(=O)OC3CCCC3)cc12 [potassium salt of zafirlukast]
conversion back to the neutral form under aqueous conditions ([1]; aqueous conditions, either neutral or acidic): does not convert back to the neutral form

SMILES: COc1cc(C(=O)NS(=O)(=O)c2ccccc2C)ccc1Cc1cn(C)c2ccc(NC(=O)OC3CCCC3)cc12 [zafirlukast, 4-(5-cyclopentyloxy-carbonylamino-1-methyl-indol-3-ylmethyl)-3-methoxy-N-o-tolylsulfonylbenzamide]
solubility in water [2]: essentially insoluble in water

SMILES: COc1cc(C(=O)NS(=O)(=O)c2ccccc2C)ccc1Cc1cn(C)c2ccc(NC(=O)OC3CCCC3)cc12 [Amorphous neutral zafirlukast]
conversion of form in the presence of water [3]: convert to a monohydrate form
